Holding throughout (format): cell-based
In one experiment the test system is MMP9. Put plainly: Downregulation of. As to conditions: compared to the control (untreated) cells.
The test system of the next experiment is COX-2. Put plainly: Downregulation of pro-inflammatory marker COX-2. Conditions: compared to the control (untreated) cells.
For a further experiment, the system named is MMP2. Put plainly: Downregulation of. As to conditions: compared to the control (untreated) cells.
A further experiment deals with Caspase 3. Put plainly: Upregulation of pro-apoptotic protein Caspase 3. As to conditions: compared to the control (untreated) cells.
The next experiment relates to IL-1β. Put plainly: Downregulation of pro-inflammatory marker IL-1β. As to conditions: compared to the control (untreated) cells.
A further experiment deals with MDA-MB-468. Put plainly: IC50 towards MDA-MB-468 cancer cell line. Conditions: Homo sapiens.
A further experiment relates to p53. Put plainly: Upregulation of pro-apoptotic protein p53. Conditions: compared to the control (untreated) cells.
The subject of another experiment is A549. Put plainly: IC50 towards A549 cancer cell line. Conditions: Homo sapiens.
A further experiment relates to Caspase 6. Put plainly: Upregulation of pro-apoptotic protein Caspase 6. As to conditions: compared to the control (untreated) cells.
The test system of another experiment is HeLa. Put plainly: IC50 towards HeLa cancer cell line. As to conditions: Homo sapiens.
The test system of another experiment is IL-6. Put plainly: Downregulation of. Conditions: compared to the control (untreated) cells.
A further experiment deals with BAX. Put plainly: Upregulation of pro-apoptotic protein BAX. Conditions: compared to the control (untreated) cells.
The test system of a further experiment is Caspase 9. Put plainly: Upregulation of pro-apoptotic protein Caspase 9. Conditions: compared to the control (untreated) cells.
The next experiment concerns FaDu. Put plainly: IC50 towards FaDu cancer cell line. As to conditions: Homo sapiens.
A further experiment relates to BCL-2. Put plainly: Downregulation of anti-apoptotic protein BCL-2. Conditions: compared to the control (untreated) cells.
The next experiment relates to PC3. Put plainly: IC50 towards PC3 cancer cell line. As to conditions: Homo sapiens, PC-3.
The next experiment deals with Caspase 8. Put plainly: Upregulation of pro-apoptotic protein Caspase 8. Conditions: compared to the control (untreated) cells.

Converted amounts (≈) assume the structure as drawn.

By IC50 is commonly meant the point on the concentration scale where inhibition reaches its midpoint. A lower IC50 goes with higher potency. As to `CCOc1ccc(Oc2ccc(/C=N/c3ccc([Se][Se]c4ccc(/N=C/c5ccc(Oc6ccc(OCC)cc6)cc5)cc4)cc3)cc2)cc1` [YS9, N,N′-(Diselanediylbis(4,1-phenylene))bis(1-(4-(4-ethoxyphenoxy)phenyl)methanimine)], the “downregulation of MMP9” value with MMP9 is 0.48 fold changes. Besides, in the experiment on COX-2, the “downregulation of COX-2” value was found to be 0.37 fold changes. In the experiment with MMP2, the “downregulation of MMP2” value is reported as 0.31 fold changes. In the experiment on Caspase 3, the “upregulation of Caspase 3” value is reported as 5.82 fold changes. In the experiment on IL-1β, the “downregulation of IL-1β” value worked out at 0.46 fold changes. Further, the IC50 is 6 µg/mL (≈ 7.59 µM) with MDA-MB-468; 4.4 µg/mL (≈ 5.56 µM) with A549; 4 µg/mL (≈ 5.06 µM) in the experiment on HeLa; 4.73 µg/mL (≈ 5.98 µM) in the experiment on FaDu; 12 µg/mL (≈ 15.1 µM) in the experiment with PC3. In addition, the “upregulation of p53” value with p53 is recorded as 3.50 fold changes. For the same molecule, the “upregulation of Caspase 6” value in the experiment with Caspase 6 was determined as 10.37 fold changes. In the experiment on IL-6, the “downregulation of IL-6” value is 0.48 fold changes. In addition, the “upregulation of BAX” value in the experiment with BAX was 1.95 fold changes. Besides, the “upregulation of Caspase 9” value in the experiment with Caspase 9 was determined as 2.41 fold changes. Also, the “downregulation of BCL-2” value with BCL-2 is 0.35 fold changes. The “upregulation of Caspase 8” value in the experiment with Caspase 8 stood at 3.16 fold changes.

On to `COc1cccc2c1C(=O)c1c(O)c3c(c(O)c1C2=O)C[C@@](O)(C(=O)CO)C[C@@H]3O[C@H]1C[C@H](N)[C@H](O)[C@H](C)O1` [doxorubicin, reference compound], for which the IC50 in the experiment on FaDu was determined as 13.1 µg/mL (≈ 24.1 µM); in the experiment with PC3, 5.83 µg/mL (≈ 10.7 µM).

The values are drawn from patent US12329729B1, “Method of treating cancer in a subject” (IMAM MOHAMMAD IBN SAUD ISLAMIC UNIVERSITY, priority 2024, dated 2025).
